Tested on: hCAR-mediated CYP2B6 promoter
Test: CAR-mediated CYP2B6 promoter luciferase assay in HepG2 cells
Assay type: cell-based, human
Settings: pcDNA3-CAR-transfected HepG2 cells, 24 h; CITCO 500 nM
Description: HepG2 cells (American Tissue Culture Collection, Manassas, VA, USA) were maintained in Dulbecco’s modified Eagle’s essential medium (DMEM), containing 10% fetal bovine serum, 1% nonessential amino acids, 1% GlutaMAX®, and 1% antibiotics/antimycotics at 37 °C in a 5% CO2 atmosphere. The expression plasmid encoding the human constitutive androstane receptor (hCAR; pcDNA3-CAR) and the pGL3-CYP2B6 luciferase construct were kindly provided by Dr. Hongbing Wang (University of Maryland, College Park, MD, USA). The plasmid encoding the human pregnane X receptor (hPXR; pcDNA3-PXR) and the pGL3-CYP3A4 luciferase construct were obtained from Dr. Masahiko Negishi at the National Institutes of Health (Bethesda, MD, USA). Cells were seeded at a density of 1.5 × 10^5 cells/well into a 24-well plate. The next day, the cells were transfected with 0.25 μg of either pcDNA3-CAR or pcDNA3-PXR and 0.25 μg of a promoter luciferase plasmid (either pGL3-CYP2B6 or pGL3-CYP3A4) using Lipofectamine 2000 (Invitrogen, Carlsbad, CA, USA) according to the manufacturer’s instructions. […] The cells were harvested and luciferase activity was measured as described previously.

- CYP2B6 luciferase activity increase: 1.5 fold
SMILES: Clc1ccc(-c2nc3sccn3c2C=NOCc2ccc(Cl)c(Cl)c2)cc1 [CITCO, reference compound]
